Results on three molecules are retold here after patent US8722849B2, “Polypeptides” (Novo Nordisk A/S, priority 2011, dated 2014).

The structures appear in SMILES notation. Converted amounts (≈) assume the structure as drawn. Like-named read-outs stand apart in the source and are kept apart here. Starred links: 1 amine or outer side, 2 acyl side, 3 side chain; linkers in the order of their positions; H or OH if unused. Positions of bridges follow the written chain, without caps; N, C: chain ends. Non-standard residues stand in square brackets, D forms with d. Residues, ends and D or L forms follow the SMILES beside them. *: point of attachment. C20 diacid = O=C(O)CCCCCCCCCCCCCCCCCCC(=O)*; C18 diacid = O=C(O)CCCCCCCCCCCCCCCCC(=O)*; γGlu = O=C(O)[C@H](CCC(=O)[*:2])N[*:1]; Orn = NCCC[C@H](N)C(=O)O; AEEA = NCCOCCOCC(=O)O

For data set [1], the target named is T1, human amylin receptor (amylin 3(a) receptor: human calcitonin receptor + RAMP-3) (Homo sapiens, UniProt O60896+P30988).
T1 construct: expressed in transfected cells; host or cells: BHK570
T1 sequence (P30988 25-474): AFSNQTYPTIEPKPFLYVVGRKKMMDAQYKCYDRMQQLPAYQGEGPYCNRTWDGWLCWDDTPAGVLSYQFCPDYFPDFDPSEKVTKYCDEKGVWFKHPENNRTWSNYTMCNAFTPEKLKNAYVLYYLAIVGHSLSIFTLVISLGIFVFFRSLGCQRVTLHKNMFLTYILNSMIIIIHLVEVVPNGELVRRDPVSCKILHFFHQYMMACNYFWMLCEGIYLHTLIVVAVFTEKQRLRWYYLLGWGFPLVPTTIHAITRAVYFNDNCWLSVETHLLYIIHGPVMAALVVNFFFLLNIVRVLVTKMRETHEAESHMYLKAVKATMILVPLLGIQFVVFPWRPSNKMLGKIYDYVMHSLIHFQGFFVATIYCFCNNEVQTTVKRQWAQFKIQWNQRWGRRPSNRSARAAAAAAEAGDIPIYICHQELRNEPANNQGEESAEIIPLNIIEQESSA
T1 sequence (O60896 24-148 partner): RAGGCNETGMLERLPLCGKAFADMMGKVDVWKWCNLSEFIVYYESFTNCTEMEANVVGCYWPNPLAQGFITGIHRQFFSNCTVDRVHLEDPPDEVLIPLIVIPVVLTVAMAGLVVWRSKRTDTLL
The experiment in a line: Assay (II)a functional CRE-luciferase assay, human amylin receptor. Format: cell-based. The note with it: Table 2; BHK amylin 3(a)-receptor/CRE-luc cells.

Data set [2] addresses T2, human calcitonin receptor (Homo sapiens, UniProt P30988).
T2 construct: expressed in transfected cells; host or cells: BHK570
T2 sequence (P30988 25-474): T1 sequence (P30988 25-474)
The data set can be described thus: Assay (II)a functional CRE-luciferase assay, human calcitonin receptor. Format: cell-based. The note with it: Table 7; human calcitonin (CTa) receptor.

A short description of data set [3]: Assay (IV) determination of solubility. Format: physicochemical. A digest of the protocol: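 Solubility is measured across pH 3.0–8.0 by mixing a ~500 nmol/ml aqueous polypeptide stock 1:1 with 100 mM glycylglycine or bistrispropane buffers. Samples stand 18 hours at room temperature, then are centrifuged and the soluble concentration is determined by HPLC.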

The mark [4] stands for this setting: bistrispropane buffer, pH 6, pH 6.0, read-out: Solubility pH 6.0.
Where [5] appears, read: bistrispropane buffer, pH 6.5, pH 6.5, read-out: Solubility pH 6.5.
The mark [6] stands for this setting: bistrispropane buffer, pH 7, pH 7.0, 18 hours at room temperature, Table 3, read-out: Solubility pH 7.0.
Setting [7] is: bistrispropane buffer, pH 7, pH 7.0, read-out: Solubility pH 7.0.
Where [8] appears, read: bistrispropane buffer, pH 7.5, pH 7.5, read-out: Solubility pH 7.5.
Where [9] appears, read: bistrispropane buffer, pH 8, pH 8.0, read-out: Solubility pH 8.0.
Where [10] appears, read: glycylglycine buffer, pH 3, pH 3.0, read-out: Solubility pH 3.0.
Where [11] appears, read: glycylglycine buffer, pH 4, pH 4.0, 18 hours at room temperature, Table 2, read-out: Solubility pH 4.0.
Setting [12] is: glycylglycine buffer, pH 4, pH 4.0, read-out: Solubility pH 4.0.
Where [13] appears, read: glycylglycine buffer, pH 5, pH 5.0, read-out: Solubility pH 5.0.

In general, EC50 refers to the concentration giving half of the maximal effect. By solubility is commonly meant how much of the substance goes into solution per volume. Consider `CC[C@H](C)[C@H](NC(=O)[C@@H]1CCCN1C(=O)CNC(=O)[C@H](Cc1ccccc1)NC(=O)[C@H](CC(N)=O)NC(=O)[C@H](CC(N)=O)NC(=O)[C@H](CO)NC(=O)[C@H](CO)NC(=O)[C@H](CCCNC(=N)N)NC(=O)[C@H](Cc1c[nH]cn1)NC(=O)[C@H](CC(C)C)NC(=O)[C@H](Cc1ccccc1)NC(=O)[C@H](CCC(=O)O)NC(=O)[C@H](C)NC(=O)[C@H](CC(C)C)NC(=O)[C@H](CCCNC(=N)N)NC(=O)[C@H](CCC(N)=O)NC(=O)[C@@H](NC(=O)[C@H](C)NC(=O)[C@@H]1CSSC[C@H](NC(=O)[C@H](CCCN)NC(=O)[C@@H](CCCNC(=N)N)NC(=O)[C@@H](CCCNC(=N)N)NC(=O)COCCOCCNC(=O)COCCOCCNC(=O)CC[C@H](NC(=O)CCCCCCCCCCCCCCCCC(=O)O)C(=O)O)C(=O)N[C@@H](CC(N)=O)C(=O)N[C@@H]([C@@H](C)O)C(=O)N[C@@H](C)C(=O)N[C@@H]([C@@H](C)O)C(=O)N1)[C@@H](C)O)C(=O)N[C@@H](CC(C)C)C(=O)N1CCC[C@H]1C(=O)N1CCC[C@H]1C(=O)N[C@H](C(=O)N[C@@H](CC(N)=O)C(=O)N[C@H](C(=O)NCC(=O)N[C@@H](CO)C(=O)N[C@@H](CC(N)=O)C(=O)N[C@H](C(=O)N[C@@H](Cc1ccc(O)cc1)C(N)=O)[C@@H](C)O)C(C)C)[C@@H](C)O` [Example 120, N-alpha-[2-(2-{2-[2-(2-{2-[(S)-4-Carboxy-4-(17-carboxyheptadecanoylamino)butyrylamino]ethoxy}ethoxy)acetylamino]ethoxy}ethoxy)acetyl]-D-Arg-D-Arg-[Orn1,Glu14,His17,Arg18]-pramlintide] ({C18 diacid-γGlu-AEEA-AEEA}-[dR][dR][Orn]CNTATCATQRLAEFLHRSSNNFGPILPPTNVGSNTY-NH2; disulfide 4-9 (inferred); C-terminus assumed), for which the EC50 was determined as 0.0295 nM in data set [1] and 0.691 nM in data set [2]. The solubility at 18 h in data set [3] (setting [4]) was > 200 µM; in data set [3] (setting [5]) it was > 200 µM; in data set [3] (setting [6]), > 200 µM; in data set [3] (setting [7]), > 200 µM; in data set [3] (setting [8]) it was > 200 µM; in data set [3] (setting [9]) it was 197 µM (≈ 992 µg/mL). For the same molecule, the solubility at 18 h in data set [3] (setting [10]), in data set [3] (setting [11]), in data set [3] (setting [12]) and in data set [3] (setting [13]) was > 200 µM in each case.

Turning to `CC[C@H](C)[C@H](NC(=O)[C@@H]1CCCN1C(=O)CNC(=O)[C@H](Cc1ccccc1)NC(=O)[C@H](CC(N)=O)NC(=O)[C@H](CCC(N)=O)NC(=O)[C@H](CO)NC(=O)[C@H](CO)NC(=O)[C@H](Cc1c[nH]cn1)NC(=O)[C@H](Cc1c[nH]cn1)NC(=O)[C@H](CC(C)C)NC(=O)[C@H](Cc1ccccc1)NC(=O)[C@H](CCC(=O)O)NC(=O)[C@H](C)NC(=O)[C@H](CC(C)C)NC(=O)[C@H](CCCNC(=N)N)NC(=O)[C@H](CCC(N)=O)NC(=O)[C@@H](NC(=O)[C@H](C)NC(=O)[C@@H]1CSSC[C@H](NC(=O)[C@H](CCCCN)NC(=O)CC[C@H](NC(=O)CCCCCCCCCCCCCCCCCCC(=O)O)C(=O)O)C(=O)N[C@@H](CC(N)=O)C(=O)N[C@@H]([C@@H](C)O)C(=O)N[C@@H](C)C(=O)N[C@@H]([C@@H](C)O)C(=O)N1)[C@@H](C)O)C(=O)N[C@@H](CC(C)C)C(=O)N1CCC[C@H]1C(=O)N1CCC[C@H]1C(=O)N[C@H](C(=O)N[C@@H](CC(N)=O)C(=O)N[C@H](C(=O)NCC(=O)N[C@@H](CO)C(=O)N[C@@H](Cc1c[nH]cn1)C(=O)N[C@H](C(=O)N[C@@H](Cc1ccc(O)cc1)C(N)=O)[C@@H](C)O)C(C)C)[C@@H](C)O` [Example 117, N-alpha-[(S)-4-Carboxy-4-(19-carboxynonadecanoylamino)butyryl]-[Glu14,His17,Gln21,His35)-pramlintide] ({C20 diacid-γGlu}-KCNTATCATQRLAEFLHHSSQNFGPILPPTNVGSHTY-NH2; disulfide 2-7 (inferred); C-terminus assumed), the EC50 in data set [1] was 0.156 nM; in data set [2] it was 0.169 nM. The solubility at 18 h in data set [3] (setting [4]) is > 200 µM; in data set [3] (setting [5]), > 200 µM; in data set [3] (setting [6]), > 200 µM; in data set [3] (bistrispropane buffer, pH 7, pH 7.0, Table 8, read-out: Solubility pH 7.0), > 200 µM; in data set [3] (bistrispropane buffer, pH 7, pH 7.0, Table 9, read-out: Solubility pH 7.0) it was > 200 µM; in data set [3] (setting [7]), > 200 µM. Besides, the solubility at 18 h in data set [3] (bistrispropane buffer, pH 7.5, pH 7.5, Table 9, read-out: Solubility pH 7.5) was > 200 µM; in data set [3] (setting [8]), > 200 µM; in data set [3] (setting [9]) it was > 200 µM; in data set [3] (setting [10]) it was > 200 µM; in data set [3] (setting [11]), > 200 µM; in data set [3] (setting [12]), > 200 µM. In addition, the solubility at 18 h in data set [3] (setting [13]) was > 200 µM.

Regarding `CC[C@H](C)[C@H](NC(=O)[C@@H]1CCCN1C(=O)CNC(=O)[C@H](Cc1ccccc1)NC(=O)[C@H](CC(N)=O)NC(=O)[C@H](CC(N)=O)NC(=O)[C@H](CO)NC(=O)[C@H](CO)NC(=O)[C@H](Cc1c[nH]cn1)NC(=O)[C@H](Cc1c[nH]cn1)NC(=O)[C@H](CC(C)C)NC(=O)[C@H](Cc1ccccc1)NC(=O)[C@H](CCC(=O)O)NC(=O)[C@H](C)NC(=O)[C@H](CC(C)C)NC(=O)[C@H](CCCNC(=N)N)NC(=O)[C@H](CCC(N)=O)NC(=O)[C@@H](NC(=O)[C@H](C)NC(=O)[C@@H]1CSSC[C@H](NC(=O)[C@H](CCCCN)NC(=O)CC[C@H](NC(=O)CCCCCCCCCCCCCCCCCCC(=O)O)C(=O)O)C(=O)N[C@@H](CC(N)=O)C(=O)N[C@@H]([C@@H](C)O)C(=O)N[C@@H](C)C(=O)N[C@@H]([C@@H](C)O)C(=O)N1)[C@@H](C)O)C(=O)N[C@@H](CC(C)C)C(=O)N1CCC[C@H]1C(=O)N1CCC[C@H]1C(=O)N[C@H](C(=O)N[C@@H](CC(N)=O)C(=O)N[C@H](C(=O)NCC(=O)N[C@@H](CO)C(=O)N[C@@H](CC(N)=O)C(=O)N[C@H](C(=O)N[C@@H](Cc1ccc(O)cc1)C(N)=O)[C@@H](C)O)C(C)C)[C@@H](C)O` [Example 27, N-alpha-[(S)-4-Carboxy-4-(19-carboxynonadecanoylamino)butyryl]-[Glu14,His17]-pramlintide] ({C20 diacid-γGlu}-KCNTATCATQRLAEFLHHSSNNFGPILPPTNVGSNTY-NH2; disulfide 2-7 (inferred)), the EC50 came to 0.121 nM in data set [1] and 0.107 nM in data set [2]. Further, the solubility at 18 h in data set [3] (setting [4]) is > 200 µM; in data set [3] (setting [5]), 174 µM (≈ 775 µg/mL); in data set [3] (setting [6]), 160 µM (≈ 713 µg/mL); in data set [3] (setting [7]), 160 µM (≈ 713 µg/mL); in data set [3] (setting [8]) it was > 200 µM; in data set [3] (setting [9]) it was > 200 µM. Besides, the solubility at 18 h in data set [3] (setting [10]), in data set [3] (setting [11]), in data set [3] (setting [12]) and in data set [3] (setting [13]) was > 200 µM each time.
